Reference: publication PMC8892251, “An Enhanced Hybrid Screening Approach to Identify Potent Inhibitors for the SARS-CoV-2 Main Protease From the NCI Compound Library” (Frontiers in Chemistry, 2022)
Values joined by “and” are separate entries in the source; they are usually repeats but may differ in a detail not shown here. Equal entries are not always repeated. Where two headings read alike, the source gives them in different places.

Tests used:
SARS-CoV-2 Mpro = SARS-CoV-2 Mpro (Severe acute respiratory syndrome coronavirus 2, UniProt P0DTD1); assay: biochemical
PLpro = PLpro (Severe acute respiratory syndrome coronavirus 2, UniProt P0DTD1); assay: IC50 test against PLpro (selectivity check for quinones); type: biochemical, SARS-CoV-2; details: Supplementary Figure S4; for specificity of Mpro inhibition: conclusion from PLpro counter-test; for selectivity Mpro versus PLpro: quinones tested on PLpro

Compound | IC50 (SARS-CoV-2 Mpro; IC50) | specificity of Mpro inhibition (PLpro) | selectivity Mpro versus PLpro (PLpro) | IC50 (SARS-CoV-2 Mpro; Mpro, Figure 5, triplicate experiments, read-out: IC50) [nM] | IC50 (SARS-CoV-2 Mpro; Mpro, read-out: IC50) [nM]
CC1=C(N=[N+]=[N-])C(=O)C(C)=C(N=[N+]=[N-])C1=O [Compound 88] | 723 nM | specifically inhibit the activity of Mpro | more selective on Mpro than PLpro | – | –
O=C1C=CC(=O)c2c1ncc1c2nc2sccn21 [Compound 110] | – | specifically inhibit the activity of Mpro | more selective on Mpro than PLpro | 705 | 705
O=C1C=C/C(=N\c2nc3c4ccccc4c4ccccc4c3[nH]2)c2ccccc21 [Compound 112] | 1690 nM and 1700 nM | – | more selective on Mpro than PLpro | – | –
